Test results taken from patent publication US7652020B2, “Compounds for the treatment of inflammatory disorders” (Schering Corporation, priority 2004, dated 2010).

Target: T1, purified catalytic domain of recombinant human TACE (rhTACEc) (Homo sapiens, UniProt P78536, N452Q/S266A)
T1 construct: Residue 215 to 477 with two mutation (S266A and N452Q) and a 6×His tail; 6xHis (C); made in house; host or cells: baculovirus/Hi5 insect cells
Assay: TACE kinetic assay: cleavage of internally quenched peptide substrate SPDL-3, fluorescence
Assay type: biochemical
Settings: TACE inhibitory activity, class symbols; read-out: Ki
Experimental: TACE activity is determined by a kinetic assay measuring the rate of increase in fluorescent intensity generated by TACE catalyzed cleavage of an internally quenched peptide substrate (SPDL-3). […] It is purified from the baculovirus/Hi5 cells expression system using affinity chromatography. […] MCA is (7-Methoxycoumarin-4-yl)acetyl. Dpa is N-3-(2,4-Dinitrophenyl)-L-2,3-diaminopropionyl.
A 50 μl assay mixture contains 20 mM HEPES, pH 7.3, 5 mM CaCl2, 100 μM ZnCl2, 2% DMSO, 0.04% Methylcellulose, 30 μM SPDL-3, 70 pM rhTACEc and a test compound. RhTACEc is pre-incubated with the testing compound for 90 min. at 25° C. Reaction is started by addition of the substrate. […] Rate of enzymatic reaction is shown as Units per second. Effect of a test compound is shown as % of TACE activity in the absence of the compound.

T1 sequence (P78536 215-477 S266A/N452Q): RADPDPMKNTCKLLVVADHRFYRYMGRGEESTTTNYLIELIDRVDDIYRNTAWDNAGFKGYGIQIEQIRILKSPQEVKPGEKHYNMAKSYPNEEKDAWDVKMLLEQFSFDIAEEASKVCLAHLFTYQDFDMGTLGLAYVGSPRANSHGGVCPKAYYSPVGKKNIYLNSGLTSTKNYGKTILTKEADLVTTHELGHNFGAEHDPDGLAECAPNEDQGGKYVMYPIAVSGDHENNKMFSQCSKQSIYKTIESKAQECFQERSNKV

Row | Compound | Ki
1 | C[C@@H](NC(=O)[C@](C)(O)[C@@H](O)C(=O)N1CCc2ccc(F)cc2C1)c1ccc(-n2cccn2)cc1 [Compound 2440] | 20 to 100 nM
2 | C[C@@H](NC(=O)[C@H](O)[C@@H](O)C(=O)N1CC(C)(C)C[C@@]1(C)c1cccc(Cl)c1)c1ccc(-n2cccn2)cc1 [Compound 2239] | > 1000 nM
3 | O=C(NCc1ccc(-c2ccc(F)cc2OCCC2CCCCC2)cc1)[C@H](O)[C@@H](O)C(=O)N1CCCC1 [Compound 2342] | 100 to 1000 nM
4 | CCOC(=O)c1cccn2cc([C@H]3CCCN3C(=O)[C@H](O)[C@@H](O)C(=O)N[C@H](C)c3ccc(-n4cccn4)cc3)nc12 [Compound 2508] | 20 to 100 nM
5 | CCOc1cc(F)ccc1-c1ccc(CNC(=O)[C@H](O)[C@@H](O)C(=O)N2CCCC2)nc1 [Compound 2349] | < 20 nM
6 | C[C@@H](NC(=O)[C@H](O)[C@@H](O)C(=O)N1CCn2ccnc2C1)c1ccc(-n2cccn2)cc1 [Compound 2082] | 100 to 1000 nM
7 | C[C@@H](NC(=O)[C@H](O)[C@@H](O)C(=O)N1CCC[C@@H]1c1ncccn1)c1ccc(-n2cccn2)cc1 [Compound 2242] | < 20 nM
8 | CNc1nc(C2c3ccccc3CN2C(=O)[C@H](O)[C@@H](O)C(=O)N[C@H](C)c2ccc(-n3cccn3)cc2)cs1 (some centres unmarked) [Compound 2445] | < 20 nM
9 | C[C@@H]1CN(c2ccccc2C#N)CCC1CNC(=O)[C@H](O)[C@@H](O)C(=O)N1Cc2ccccc2C1 (some centres unmarked) [Compound 2143] | < 20 nM
10 | CCNc1nc([C@H]2C[C@@H](C)CN2C(=O)[C@H](O)[C@@H](O)C(=O)N[C@H](C)c2ccc(-n3cccn3)cc2)cs1 [Compound 2271] | < 20 nM
11 | C[C@@H](NC(=O)[C@H](O)[C@@H](O)C(=O)N1CCC[C@@H]1c1cn2ccccc2n1)c1ccc(-n2cccn2)cc1 [Compound 2507] | < 20 nM
12 | C[C@@H](NC(=O)[C@H](O)[C@@H](O)C(=O)N1CCC[C@@H]1c1cc[nH]n1)c1ccc(-n2cccn2)cc1 [Compound 2247] | < 20 nM
13 | O=C(NCC1CCN(c2cccc(F)c2OC(F)(F)F)CC1)[C@H](O)[C@@H](O)C(=O)N1CCCC1 [Compound 2140] | > 1000 nM
14 | C[C@@H](NC(=O)[C@H](O)[C@@H](O)C(=O)N1C[C@@H]2C[C@H](C1)c1cccc(=O)n1C2)c1ccc(-n2cccn2)cc1 [Compound 2097] | 100 to 1000 nM
15 | C[C@@H](NC(=O)[C@H](O)[C@@H](O)C(=O)N1Cc2ccc[n+]([O-])c2C1)c1ccc(-n2cccn2)cc1 [Compound 2030] | 20 to 100 nM
16 | C[C@@H](NC(=O)[C@H](O)[C@@H](O)C(=O)N1CC2CC1CN2c1ccc(Cl)cc1)c1ccc(-n2cccn2)cc1 (some centres unmarked) [Compound 2419] | 100 to 1000 nM
17 | C[C@@H](NC(=O)[C@H](O)[C@@H](O)C(=O)N1CC(C)(C)CC1(C)C)c1ccc(-n2cccn2)cc1 [Compound 2254] | 100 to 1000 nM
18 | CNc1nc([C@H]2C[C@@H]3C[C@@H]3N2C(=O)[C@H](O)[C@@H](O)C(=O)N[C@H](C)c2ccc(-n3cccn3)cc2)cs1 [Compound 2246] | 20 to 100 nM
19 | CNc1nc([C@H]2CCCN2C(=O)[C@H](O)[C@@H](O)C(=O)N[C@H](C)c2ccc(-n3cccn3)cc2)cs1 [Compound 2252] | < 20 nM
20 | C[C@@H](NC(=O)[C@H](O)[C@@H](O)C(=O)N1Cc2cncnc2C1)c1ccc(-n2cccn2)cc1 [Compound 2044] | < 20 nM
21 | C[C@@H](NC(=O)[C@H](O)[C@@H](O)C(=O)N1CCC[C@@H]1c1ccn(C)n1)c1ccc(-n2cccn2)cc1 [Compound 2248] | < 20 nM
22 | C[C@H]1CN(c2ccccc2C#N)CCC1CNC(=O)[C@H](O)[C@@H](O)C(=O)N1CCC[C@@H]1c1ccccc1 (some centres unmarked) [Compound 2145] | 100 to 1000 nM
23 | C[C@@H](NC(=O)[C@H](O)[C@@H](O)C(=O)N1CCCC(C)(C)C1)c1ccc(-n2cccn2)cc1 [Compound 2412] | 100 to 1000 nM
24 | C[C@](O)(C(=O)NCC1CCN(c2ccccc2OC(F)(F)F)CC1)[C@@H](O)C(=O)N1Cc2cccnc2C1 [Compound 2038] | 20 to 100 nM
25 | C[C@@H](NC(=O)[C@H](O)[C@@H](O)C(=O)N1CCCN1c1ccccc1)c1ccc(-n2cccn2)cc1 [Compound 2496] | 100 to 1000 nM

Row | Compound | Ki
26 | O=C(NCc1ccc(-c2ccccc2)cc1)[C@H](O)[C@@H](O)C(=O)N1Cc2cccnc2C1 [Compound 2037] | 20 to 100 nM
27 | C[C@H]1CN(c2ccccc2C#N)CCC1CNC(=O)[C@H](O)[C@@H](O)C(=O)N1Cc2ccccc2C1 (some centres unmarked) [Compound 2146] | 100 to 1000 nM
28 | CCC(c1cccc(Cl)c1)N(C)C(=O)[C@H](O)[C@@H](O)C(=O)N[C@H](C)c1ccc(-n2cccn2)cc1 (some centres unmarked) [Compound 2487] | 20 to 100 nM
29 | CC#CCOc1cc([C@@H](C)NC(=O)[C@H](O)[C@@H](O)C(=O)N2CCC[C@@H]2c2cccc(Cl)c2)ccc1-n1cccn1 [Compound 2571] | < 20 nM
30 | C[C@@H](NC(=O)[C@](C)(O)[C@@H](O)C(=O)N1Cc2cccnc2C1)c1ccc(-n2cccn2)cc1 [Compound 2031] | < 20 nM
31 | CC(c1cccc(Cl)c1)N(CC1CC1)C(=O)[C@H](O)[C@@H](O)C(=O)N[C@H](C)c1ccc(-n2cccn2)cc1 (some centres unmarked) [Compound 2485] | > 1000 nM
32 | N#Cc1cc(F)ccc1N1CCC(CNC(=O)[C@H](O)[C@@H](O)C(=O)N2C3CCC2CC3)CC1 [Compound 2094] | > 1000 nM
33 | CC(c1cccc(Cl)c1)N(C(=O)[C@H](O)[C@@H](O)C(=O)N[C@H](C)c1ccc(-n2cccn2)cc1)C1CC1 (some centres unmarked) [Compound 2483] | > 1000 nM
34 | C[C@@H](NC(=O)[C@H](O)[C@@H](O)C(=O)N1CCc2ccccc2C1)c1ccc(-n2cccn2)cc1 [Compound 2438] | < 20 nM
35 | C[C@](O)(C(=O)NCC1CCN(c2ccc(F)cc2C#N)CC1)[C@@H](O)C(=O)N1Cc2ccncc2C1 [Compound 2041] | 20 to 100 nM
36 | C[C@@H](NC(=O)[C@H](O)[C@@H](O)C(=O)N1Cc2cccnc2C1)c1cccc(OCc2ccccc2)c1 [Compound 2308] | > 1000 nM
37 | O=C(NCC1CCN(c2ccc(F)cc2Br)CC1)[C@H](O)[C@@H](O)C(=O)N1Cc2ccccc2C1 [Compound 2139] | < 20 nM
38 | C[C@@H](NC(=O)[C@H](O)[C@@H](O)C(=O)N1CC[C@H](O)[C@H]1c1cccc(Cl)c1)c1ccc(-n2cccn2)cc1 [Compound 2266] | < 20 nM
39 | C[C@@H](NC(=O)[C@H](O)[C@@H](O)C(=O)N1Cc2cccnc2C1)c1ccc(-n2cccn2)c(O)c1 [Compound 2305] | < 20 nM
40 | C[C@@H](NC(=O)[C@](C)(O)[C@@H](O)C(=O)N1Cc2cccnc2C1)c1ccc(-n2cccn2)c(OCC2CC2)c1 [Compound 2358] | 100 to 1000 nM
41 | CC#CCOc1cc([C@@H](C)NC(=O)[C@H](O)[C@@H](O)C(=O)N2CC=CC2c2cccc(Cl)c2)ccc1-n1cccn1 (some centres unmarked) [Compound 2572] | < 20 nM
42 | O=C(NCc1ccc(-c2ccccc2OCC2CCCC2)cc1)[C@H](O)[C@@H](O)C(=O)N1CCCC1 [Compound 2340] | 20 to 100 nM
43 | C[C@@H](NC(=O)[C@H](O)[C@@H](O)C(=O)N1Cc2cnc(N)nc2C1)c1ccc(-n2cccn2)cc1 [Compound 2043] | < 20 nM
44 | CO[C@@H](C(=O)NCc1ccc(-c2ccc(F)cc2OCCC2CCCCC2)cc1)[C@@H](O)C(=O)N1Cc2cccnc2C1 [Compound 2476] | 20 to 100 nM
45 | C[C@@H](NC(=O)[C@H](O)[C@@H](O)C(=O)N1CCCC1(C)c1nccs1)c1ccc(-n2cccn2)cc1 (some centres unmarked) [Compound 2251] | < 20 nM
46 | CCCN(C(=O)[C@H](O)[C@@H](O)C(=O)N[C@H](C)c1ccc(-n2cccn2)cc1)C(C)c1cccc(Cl)c1 (some centres unmarked) [Compound 2486] | > 1000 nM
47 | CNc1nc2c(s1)CN(C(=O)[C@H](O)[C@@H](O)C(=O)N[C@H](C)c1ccc(-n3cccn3)cc1)CC2 [Compound 2084] | 20 to 100 nM
48 | Cc1cnc([C@H](O)[C@@H](O)C(=O)NCC2CCN(c3ccc(F)cc3C#N)CC2)n1C [Compound 2400] | 100 to 1000 nM
49 | CCNc1nc([C@H]2CCCN2C(=O)[C@H](O)[C@@H](O)C(=O)N[C@H](C)c2ccc(-n3cccn3)cc2)cs1 [Compound 2256] | < 20 nM
50 | O=C(NCc1ccc(-c2ccccc2OCCN2CCOCC2)cc1)[C@H](O)[C@@H](O)C(=O)N1CCCC1 [Compound 2343] | > 1000 nM

Same assay, conditions: TACE, representative compounds, numeric values; read-out: Ki

Row | Compound | Ki
51 | CC(C)Nc1nc([C@H]2c3ccccc3CN2C(=O)[C@H](O)[C@@H](O)C(=O)N[C@H](C)c2ccc(-n3cccn3)cc2)cs1 [drawing 1298] | 0.54 nM
52 | C[C@@H](NC(=O)[C@H](O)[C@@H](O)C(=O)N1Cc2ccncc2C1)C1CCN(c2ccccc2OC(F)(F)F)CC1 | 0.74 nM
53 | CNc1nc([C@H]2CCCN2C(=O)[C@H](O)[C@@H](O)C(=O)N[C@H](C)c2ccc(-n3cccn3)cc2)c(C)s1 [drawing 1315] | 2 nM
54 | CC#CCOc1cc([C@@H](C)NC(=O)[C@](C)(O)[C@@H](O)C(=O)N2Cc3cccnc3C2)ccc1-n1cccn1 [drawing 1313] | 1.44 nM
55 | CCNc1nc(C2c3ccccc3CN2C(=O)[C@H](O)[C@@H](O)C(=O)N[C@H](C)c2ccc(-n3cccn3)cc2)cs1 (some centres unmarked) | 0.16 nM
56 | CNc1nc([C@H]2CCCN2C(=O)[C@H](O)[C@@H](O)C(=O)N[C@H](C)c2ccc(-n3cccn3)cc2)c(C#N)s1 [drawing 1316] | 2 nM
57 | C[C@@H](NC(=O)[C@](C)(O)[C@@H](O)C(=O)N1CCCC1(C)c1cccc(Cl)c1)c1ccc(-n2cccn2)cc1 (some centres unmarked) [drawing 1303] | 0.75 nM
58 | COc1cc2c(cc1OC)C(c1ccccc1)N(C(=O)[C@H](O)[C@@H](O)C(=O)N[C@H](C)c1ccc(-n3cccn3)cc1)CC2 (some centres unmarked) [drawing 1306] | 0.86 nM
59 | CNc1nc([C@H]2c3ccccc3CN2C(=O)[C@H](O)[C@@H](O)C(=O)N[C@H](C)c2ccc(-n3cccn3)cc2)cs1 | 0.5 nM
